Experimental data as given in patent US11065253B2, “Arylquinazolines” (Merck Patent GmbH, priority 2013, dated 2021).
pIC50: −log10 of the molar value.

system: phospho-serine 2056 DNA-PK in HCT116 cells; assay: DNA-PK phosphorylation at serine 2056 (cellular), ELISA in bleomycin-treated HCT116 cells; assay type: cell-based; conditions: Homo sapiens, HCT-116, 6 h, cellular; HCT116 cells, 10 μM bleomycin, six hours; read-out: IC50 pDNA-PK
In short: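 After overnight seeding, HCT116 cells received compound with 10 μM bleomycin for 6 h; phospho-DNA-PK ELISA signals were scaled to total DNA-PKcs, DMSO serving as blank.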

pIC50 | SMILES
5.00 to 5.30 | O[C@@H](c1ccc(F)c(-c2ncnc3cc(N4CCOCC4)ccc23)c1)c1nccnc1Cl [Example 28, (S)-(3-Chloro-pyrazin-2-yl)-[4-fluoro-3-(7-morpholin-4-yl-quinazolin-4-yl)phenyl]-methanol]
5.30 to 6.30 | O=c1ccc(C(O)c2cc(-c3ncnc4cc(N5CCOCC5)ccc34)c(F)cc2Cl)nn1C1CC1 (stereo not shown) [Example 95, 6-{[2-Chloro-4-fluoro-5-(7-morpholin-4-yl-quinazolin-4-yl)phenyl]-hydroxymethyl}-2-cyclopropyl-2H-pyridazin-3-one]
4.52 to 5.00 | COc1cnc(C(O)c2ccc(OC)c(-c3ncnc4cc(N5CCOCC5)ccc34)c2)cn1 (stereo not shown) [Example 61, [4-methoxy-3-(7-morpholin-4-yl-quinazolin-4-yl)phenyl]-(5-methoxypyrazin-2-yl)methanol]
> 6.30 | COc1cc(Cl)nnc1C(O)c1ccc(F)c(-c2ncnc3cc(N4CCOCC4)ccc23)c1 (stereo not shown) [Example 10, (6-Chloro-4-methoxy-pyridazin-3-yl)-[4-fluoro-3-(7-morpholin-4-yl-quinazolin-4-yl)phenyl]-methanol]
5.30 to 6.30 | COc1ccnnc1C(O)c1ccc(F)c(-c2ncnc3cc(N4CCOCC4)ccc23)c1 (stereo not shown) [Example 18, [4-Fluoro-3-(7-morpholin-4-yl-quinazolin-4-yl)phenyl]-(4-methoxy-pyridazin-3-yl)methanol]

same assay, conditions: Homo sapiens, HCT-116, cellular DNA-PK phosphorylation at serine 2056, HCT116 cells; read-out: IC50 pDNA-PK

pIC50 | SMILES
5.30 to 6.30 | OC(c1ccc(F)c(-c2ncnc3cc(N4CCOCC4)ccc23)c1)c1nnc2ccccn12 (stereo not shown) [Example 399, [4-Fluoro-3-(7-morpholin-4-yl-quinazolin-4-yl)-phenyl]-[1,2,4]-triazolo[4,3-a]pyridin-3-ylmethanol]
> 6.30 | CCOc1cccnc1C(O)c1ccc(F)c(-c2ncnc3cc(N4CCOCC4)ccc23)c1 (stereo not shown) [Example 463, (3-Ethoxy-pyridin-2-yl)-[4-fluoro-3-(7-morpholin-4-yl-quinazolin-4-yl)-phenyl]methanol]
> 6.30 | OC(c1ccc(F)c(-c2ncnc3cc(N4CCOCC4)ccc23)c1)c1nccnc1C(F)(F)F (stereo not shown) [Example 476, [4-Fluoro-3-(7-morpholin-4-yl-quinazolin-4-yl)-phenyl]-(3-trifluoro-methylpyrazin-2-yl)-methanol]
5.30 to 6.30 | Cn1ncc2c(C(O)c3cc(-c4ncnc5cc(N6CCOCC6)ccc45)c(F)cc3Cl)ncnc21 (stereo not shown) [Example 402, [2-Chloro-4-fluoro-5-(7-morpholin-4-yl-quinazolin-4-yl)-phenyl]-(1-methyl-1H-pyrazolo[3,4-d}-pyrimidin-4-yl)-methanol]
5.30 to 6.30 | Cc1nccnc1C(O)c1cc(-c2ncnc3cc(N4CCOCC4)ccc23)ccc1Cl (stereo not shown) [Example 426, [2-Chloro-5-(7-morpholin-4-yl-quinazolin-4-yl)-phenyl]-(3-methyl-pyrazin-2-yl)-methanol (Ena 2)]
5.30 to 6.30 | CCn1c(C(O)c2ccc(F)c(-c3ncnc4cc(N5CCOCC5)ccc34)c2)cccc1=O (stereo not shown) [Example 398, 1-Ethyl-6-{[4-fluoro-3-(7-morpholin-4-yl-quinazolin-4-yl)-phenyl]hydroxy-methyl}-1H-pyridin-2-one]
> 6.30 | OC(c1cc(-c2ncnc3cc(N4CCOCC4)ccc23)ccc1F)c1ncnc2ccsc12 (stereo not shown) [Example 405, [2-Fluoro-5-(7-morpholin-4-yl-quinazolin-4-yl)-phenyl]thieno[3,2-d}-pyrimidin-4-yl-methanol]

same assay, conditions: Homo sapiens, HCT-116, phospho-serine 2056 DNA-PK, bleomycin-treated HCT116 cells; class symbols A-D; read-out: IC50 pDNA-PK

SMILES | pIC50
OCc1csc(C(O)c2cc(-c3ncnc4cc(N5C6CCC5COC6)ccc34)c(F)cc2Cl)n1 (stereo not shown) [Example 187, {2-Chloro-4-fluoro-5-[7-(3-oxa-8-aza-bicyclo[3.2.1]oct-8-yl)quinazolin-4-yl]-phenyl}-(4-hydroxy-methylthiazol-2-yl)-methanol] | 4.52 to 5.00
OC(c1cn2ccnc2cn1)c1cc(-c2ncnc3cc(N4CCOCC4)ccc23)c(F)cc1F (stereo not shown) [Example 223, [2,4-Difluoro-5-(7-morpholin-4-yl-quinazolin-4-yl)-phenyl]imidazo-[1,2-a]pyrazin-6-yl-methanol] | 5.30 to 6.30

Results, then the compound that gave them:

pIC50 | SMILES
5.30 to 6.30 | Cn1nc(C(O)c2cc(-c3ncnc4cc(N5CCOCC5)ccc34)c(F)cc2F)ccc1=O (stereo not shown) [Example 219, 6-{[2,4-Difluoro-5-(7-morpholin-4-yl-quinazolin-4-yl)-phenyl]hydroxy-methyl}-2-methyl-2H-pyridazin-3-one]
4.52 to 5.00 | COc1ccc([C@H](O)c2cc(-c3ncnc4cc(N5CCOCC5)ccc34)c(F)cc2Cl)nn1 [Example 135, (R)-[2-Chloro-4-fluoro-5-(7-morpholin-4-yl-quinazolin-4-yl)-phenyl]-(6-methoxy-pyridazin-3-yl)-methanol]
4.52 to 5.00 | COc1ccc(C(O)(c2cc(-c3ncnc4cc(N5CCOCC5)ccc34)c(F)cc2Cl)C(F)F)nn1 (stereo not shown) [Example 123, 1-[2-Chloro-4-fluoro-5-(7-morpholin-4-yl-quinazolin-4-yl)-phenyl]-2,2-difluoro-1-(6-methoxy-pyridazin-3-yl)-ethanol]

same assay, conditions: Homo sapiens, HCT-116, phospho-serine 2056 DNA-PK, bleomycin-treated HCT116 cells; read-out: IC50 pDNA-PK

SMILES | pIC50
Cc1nccnc1C(C(N)=O)c1ccc(F)c(-c2ncnc3cc(N4CCOCC4)ccc23)c1 (stereo not shown) [Example 327, 2-[4-Fluoro-3-(7-morpholin-4-yl-quinazolin-4-yl)-phenyl]-2-(3-methyl-pyrazin-2-yl)-acetamide] | 4.52 to 5.00
OC(c1ccc(F)c(-c2ncnc3cc(N4CCOCC4)ccc23)c1)c1nccn2cccc12 (stereo not shown) [Example 356, [4-Fluoro-3-(7-morpholin-4-yl-quinazolin-4-yl)-phenyl]pyrrolo[1,2-a]-pyrazin-1-ylmethanol] | > 6.30
NC(=O)C(c1cc(-c2ncnc3cc(N4CCOCC4)ccc23)c(F)cc1F)c1nccn2cccc12 (stereo not shown) [Example 348, 2-[2,4-Difluoro-5-(7-morpholin-4-yl-quinazolin-4-yl)-phenyl]-2-pyrrolo-[1,2-a]pyrazin-1-yl-acetamide] | 5.30 to 6.30
OC(c1ccc(F)c(-c2ncnc3cc(N4CCOCC4)ccc23)c1)c1nncc2ccoc12 (stereo not shown) [Example 335, [4-Fluoro-3-(7-morpholin-4-yl-quinazolin-4-yl)-phenyl]furo[2,3-d}-pyridazin-7-yl-methanol] | > 6.30

The remaining lines, values ahead:

pIC50 | SMILES
5.00 to 5.30 | NC(=O)C(c1cccnc1)c1cc(-c2ncnc3cc(N4CCOCC4)ccc23)c(F)cc1Cl (stereo not shown) [Example 293, 2-[2-Chloro-4-fluoro-5-(7-morpholin-4-yl-quinazolin-4-yl)-phenyl]-2-pyridin-3-ylacetamide]
5.30 to 6.30 | NC(=O)C(c1cc(-c2ncnc3cc(N4CCOCC4)ccc23)c(F)cc1Cl)c1ncccc1Cl (stereo not shown) [Example 289, 2-[2-Chloro-4-fluoro-5-(7-morpholin-4-yl-quinazolin-4-yl)-phenyl]-2-(3-chloro-pyridin-2-yl)-acetamide]

same assay, conditions: cellular DNA-PK phosphorylation at serine 2056, HCT116 cells; read-out: IC50 pDNA-PK

pIC50 | SMILES
5.30 to 6.30 | COc1cncnc1C(O)c1cc(-c2ncnc3cc(N4CCOCC4)ccc23)ccc1Cl (stereo not shown) [Example 413, [2-Chloro-5-(7-morpholin-4-yl-quinazolin-4-yl)-phenyl]-(5-methoxy-pyrimidin-4-yl)-methanol]
> 6.30 | O[C@@H](c1cc(-c2ncnc3cc(N4CCOCC4)ccc23)c(F)cc1Cl)c1nccn2ccnc12 (single isomer, unassigned) [Example 396]
5.30 to 6.30 | Cc1cncnc1C(O)c1cc(-c2ncnc3cc(N4CCOCC4)ccc23)ccc1Cl (stereo not shown) [Example 418, [2-Chloro-5-(7-morpholin-4-yl-quinazolin-4-yl)-phenyl]-(5-methyl-pyrimidin-4-yl)-methanol (Ena 1)]

SMILES | pIC50
OC(c1ccc(F)c(-c2ncnc3cc(N4CCOCC4)ccc23)c1)c1nccnc1I (stereo not shown) [Example 462, [4-Fluoro-3-(7-morpholin-4-yl-quinazolin-4-yl)-phenyl]-(3-iodo-pyrazin-2-yl)-methanol] | > 6.30

same assay, conditions: cellular; HCT116 cells, 10 μM bleomycin, six hours; read-out: IC50 pDNA-PK

pIC50 | SMILES
5.30 to 6.30 | OC(c1ccc2nccn2n1)c1cc(-c2ncnc3cc(N4CCOCC4)ccc23)c(F)cc1Cl (stereo not shown) [Example 63, [2-Chloro-4-fluoro-5-(7-morpholin-4-yl-quinazolin-4-yl)phenyl]-imidazo[1,2-b]pyridazin-6-ylmethanol]
> 6.30 | OC(c1ccc(F)c(-c2ncnc3cc(N4CCOCC4)sc23)c1)c1nccnc1Cl (single isomer, unassigned) [Example 24, (3-Chloro-pyrazin-2-yl)-[4-fluoro-3-(6-morpholin-4-yl-thieno-[3,2-d}pyrimidin-4-yl)-phenyl]methanol]
> 6.30 | Cc1nccnc1C(O)c1cc(-c2ncnc3cc(N4CCOCC4)ccc23)c(F)cc1F (stereo not shown) [Example 86, [2,4-Difluoro-5-(7-morpholin-4-yl-quinazolin-4-yl)-phenyl]-(3-methyl-pyrazin-2-yl)methanol]

same assay, conditions: phospho-serine 2056 DNA-PK, bleomycin-treated HCT116 cells; class symbols A-D; read-out: IC50 pDNA-PK

pIC50 | SMILES
5.30 to 6.30 | OC(c1cc(F)c(F)c(-c2ncnc3cc(N4CCOCC4)ccc23)c1)c1nccs1 (stereo not shown) [Example 179, [3,4-Difluoro-5-(7-morpholin-4-yl-quinazolin-4-yl)-phenyl]thiazol-2-yl-methanol]
4.52 to 5.00 | Cc1nc([C@H](O)c2cnc(F)c(-c3ncnc4cc(N5CCOCC5)ncc34)c2)sc1C [Example 204, (R)-(4,5-Dimethyl-thiazol-2-yl)-[6-fluoro-5-(7-morpholin-4-yl-pyrido[4,3-d}-pyrimidin-4-yl)-pyridin-3-yl]-methanol]
> 6.30 | COc1ccc(C(O)c2cc(-c3ncnc4cc(N5CCOCC5)sc34)c(F)cc2Cl)nn1 (single isomer, unassigned) [Example 126, [2-Chloro-4-fluoro-5-(6-morpholin-4-ylthieno[3,2-d}-pyrimidin-4-yl)-phenyl]-(6-methoxy-pyridazin-3-yl)-methanol]

same assay, conditions: phospho-serine 2056 DNA-PK, bleomycin-treated HCT116 cells; read-out: IC50 pDNA-PK

SMILES | pIC50
COc1ccc(C(O)c2ccc(F)c(-c3ncnc4cc(N5CCOCC5)cc(F)c34)c2)nn1 (stereo not shown) [Example 260, [4-Fluoro-3-(5-fluoro-7-morpholin-4-yl-quinazolin-4-yl)-phenyl]-(6-methoxy-pyridazin-3-yl)-methanol] | > 6.30
